Calls of active or inactive are those of the source. The calls are words filed in the database; no cut-off is given here.
How the values were obtained:
[1] = Downregulation of cell surface PD-L1 expression in human MDA-MB-231 cells assessed as mean fluorescence intensity at […] incubated for 24 hrs by phycoerythrin staining based flow cytometry analysis (reference value: 1156); assay type: functional
MCF7 = assay: Antiproliferative activity against human MCF7 cells incubated for 72 hrs by MTT assay; assay type: functional, cell-based
MDA-MB-231 [2] = assay: Antiproliferative activity against human MDA-MB-231 cells incubated for 72 hrs by MTT assay; assay type: functional, cell-based
A549 [3] = assay: Antiproliferative activity against human A549 cells incubated for 72 hrs by MTT assay; assay type: functional, cell-based
[4] = Downregulation of cell surface PD-L1 protein expression in human A549 cells assessed as test to control ratio at 10 uM incubated for 24 hrs by Western blot analysis; assay type: functional
[5] = Downregulation of cell surface PD-L1 protein expression in human MDA-MB-231 cells assessed as test to control ratio at 5 uM incubated for 24 hrs by Western blot analysis; assay type: functional
A549 [6] = assay: Effect on CD274 mRNA expression in human A549 cells at 5 to 10 uM hrs by real-time quantitative-PCR analysis; assay type: functional, cell-based; settings: dose 5-10 µM
[7] = Downregulation of cell surface PD-L1 expression in human MDA-MB-231 cells assessed as mean fluorescence intensity at 10 uM incubated for 24 hrs by phycoerythrin staining based flow cytometry analysis (reference value: 1156); assay type: functional
[8] = Downregulation of cell surface PD-L1 protein expression in human MDA-MB-231 cells assessed as test to control ratio at 10 uM incubated for 24 hrs by Western blot analysis; assay type: functional
[9] = Downregulation of cell surface PD-L1 protein expression in human A549 cells assessed as test to control ratio at 5 uM incubated for 24 hrs by Western blot analysis; assay type: functional
MDA-MB-231 [10] = assay: Effect on CD274 mRNA expression in human MDA-MB-231 cells at 5 to 10 uM hrs by real-time quantitative-PCR analysis; assay type: functional, cell-based; settings: dose 5-10 µM
[11] = Downregulation of cell surface PD-L1 expression in human MDA-MB-231 cells assessed as mean fluorescence intensity at 5 uM incubated for 24 hrs by phycoerythrin staining based flow cytometry analysis (reference value: 1156); assay type: functional

SMILES	Flu intensity [1]	Activity (MCF7)	Activity (MDA-MB-231 [2])	Activity (A549 [3])	T/C [4]	T/C [5]	Activity (A549 [6])	Flu intensity [7]	T/C [8]	T/C [9]	Activity (MDA-MB-231 [10])	Flu intensity [11]
CN(C)C(=N)NC(=N)N [METFORMIN]	1081	–	–	–	–	–	–	–	–	–	–	–
C[C@@H]1OC(=O)/C=C/[C@@H](O)CC[C@H](C)OC(=O)[C@H](n2cnc3c2ncn2c4c(nc32)[C@H](C)OC(=O)/C=C/[C@@H](O)CC[C@H](C)OC(=O)C4)CC1=O	–	inactive	inactive	inactive	–	–	–	–	–	–	–	–
CO[C@@H]1[C@H](O)[C@@H](CO)O[C@H]1n1cnc2c1ncn1c3c(nc21)[C@H](C)OC(=O)/C=C/[C@@H](O)CC[C@H](C)OC(=O)C3	–	inactive	inactive	inactive	–	–	–	–	–	–	–	–
C[C@@H]1OC(=O)/C=C/[C@@H](O)CC[C@H](C)OC(=O)[C@H](n2cnc3ncn4c5c(nc4c32)[C@H](C)OC(=O)/C=C/[C@@H](O)CC[C@H](C)OC(=O)C5)CC1=O	–	inactive	inactive	inactive	–	–	–	–	–	–	–	–
C[C@@H]1OC(=O)/C=C/[C@@H](O)CC[C@H](C)OC(=O)Cc2c1nc1c3ncn([C@@H]4O[C@H](CO)[C@@H](O)[C@H]4O)c3ncn21	–	inactive	inactive	inactive	0.32	0.89	inactive	820	0.54	0.6	inactive	897

— ChEMBL document CHEMBL5532715, “Rogersonins C-F, 9H-Imidazo[2,1-i]purine-Incorporating Adenine-Polyketide Hybrids from an Ophiocordyceps-Associated Clonostachys rogersoniana” (2024)
